The record followed here is US20250270227A1, “CAMPTOTHECIN DERIVATIVE, AND PHARMACEUTICAL COMPOSITION AND USE THEREOF” (SIMCERE ZAIMING PHARMACEUTICAL CO., LTD., priority 2021, published 2025).

Structures are written as SMILES. Read-outs that look alike come from different tables or passages of the source.

What all share (format): cell-based
In experiment [1] the test system is Human ovarian cancer cell line SK-OV-3. The experiment is described as follows: Test 2 of anti-proliferative activity against tumor cells (Cell-Titer Glo). The procedure:
(§1) Cell culture: SK-OV-3 cells were cultured in McCoy's 5a medium containing 10% fetal bovine serum+1% penicillin-streptomycin, PA-1 cells were cultured in MEM medium containing 10% fetal bovine serum+1% MEM NEAA+1% sodium pyruvate+1% penicillin-streptomycin, NCI-H82 cells and MDA-MB-231 cells were cultured in 1640 medium containing 10% fetal bovine serum+1% penicillin-streptomycin, A549 cells were cultured in DMEM medium containing 10% fetal bovine serum+1% penicillin-streptomycin, all under conditions of 37° C. and 5% CO2. Cells in logarithmic growth phase were suitable for the experiment.
(§2) Detection of cell proliferation activity: The inhibitory activity of the compounds on the proliferation of the five cell lines SK-OV-3, PA-1, NCI-H82, MDA-MB-231 and A549 was detected using Cell-Titer Glo reagent. SK-OV-3 cell (1000 cells per well), PA-1 cells (800 cells per well), NCI-H82 cells (5000 cells per well), MDA-MB-231 cells (3000 cells per well) and A549 cells (400 cells per well) were seeded in 96-well plates and cultured at 37° C. and 5% CO2 for 24 h. The compound to be tested was dissolved in DMSO to a concentration of 1 mM, then subjected to gradient dilution with DMSO and corresponding medium, and transferred to 96-well cell plates to a final concentration of 300 nM (initial concentration), with 3-fold dilution and a total of 9 concentration points. The cells were cultured at 37° C. and 5% CO2 for additional 5 days. The cell viability was detected by adding Cell-Titer Glo reagent.
(§3) Additionally, a negative control group and a positive control group were provided as Bottom and Top, respectively. In the negative control group, the cells were not added, only the same volume of medium was added, and other operations were consistent with those in the experimental group; in the positive control group, the test compound was not added, only the same volume of DMSO was added, and other operations were consistent with those in the experimental group.
(§4) Data analysis: The % compound inhibition was calculated, and fitting was performed to obtain IC50 of the compound.
(§5) % Compound inhibition=1−100%*(Signal−Bottom)/(Top−Bottom).
(§6) Signal represents the signal value of the experimental group, Bottom represents the average signal value of the negative control group, and Top represents the average signal value of the positive control group.

The subject of experiment [2] is human ovarian cancer cell line PA-1. The experiment is described as above. The procedure:
as §1, §2, §3, §4, §5, §6

Experiment [3] deals with human small cell lung cancer cell line NCI-H82. The description is as above. The following applies: Homo sapiens, NCI-H82, 120 h, read-out: NCI-H82 Anti-proliferative activity IC50 (nM), NCI-H82 cells, 5 days, Cell-Titer Glo. The procedure:
as §1, §2, §3, §4, §5, §6

Experiment [4] concerns human breast cancer cell line MDA-MB-231. The description is as above. The method, then: as §1, §2, §3, §4, §5, §6
Experiment [5] relates to human non-small cell lung cancer cell line A549. The description is as above. The method, then:
as §1, §2, §3, §4, §5, §6

Experiment [6] has as its system Human colorectal cancer cell line HCT116. The experiment is described as follows: Test 1 of anti-proliferative activity against tumor cells (Cell-Titer Glo). The method, then: (§7) Cell culture: HCT116 cells and SKBR3 cells were cultured in McCoy's 5a medium containing 10% fetal bovine serum+1% penicillin-streptomycin at 37° C. and 5% CO2, and OVCAR3 cells were cultured in 1640 medium containing 20% fetal bovine serum+2 μg/mL bovine insulin+1% penicillin-streptomycin at 37° C. and 5% CO2. Cells in logarithmic growth phase were suitable for the experiment.
(§8) Detection of cell proliferation activity: The inhibitory activity of the compounds on the proliferation of the three cell lines HCT116, SKBR3 and OVCAR3 was detected using Cell-Titer Glo reagent. HCT116 cells (1500 cells per well), SKBR3 cells (3000 cells per well) and OVCAR3 cells (5000 cells per well) were seeded in 96-well plates and cultured at 37° C. and 5% CO2 for 24 h. The solution of the compound to be tested (the compound was dissolved in DMSO with the concentration of the compound being 1 mM, then the compound was diluted to 3 μM with DMSO, with 3-fold dilution and a total of 9 concentrations, and 10 μL of the prepared compound solution was transferred to a 96-well plate with the final concentration of 0-300 nM) was added. The cells were placed at 37° C. and 5% CO2 for further culture. HCT116 cells were cultured for 3 days, and SKBR3 cells and OVCAR3 cells were cultured for 5 days. The cell viability was detected by adding Cell-Titer Glo reagent.
as §3, §4, §5, §6

Experiment [7] deals with human ovarian cancer cell line OVCAR3. The experiment is described as above. The method, then: as §7, §8, §3, §4, §5, §6
Experiment [8] deals with human breast cancer cell line SKBR3. Described as above. The method, then: as §7, §8, §3, §4, §5, §6
The mark [9] stands for this setting: Homo sapiens, SK-OV-3, 120 h, read-out: SK-OV-3 Anti-proliferative activity IC50 (nM).
Where [10] appears, read: Homo sapiens, PA-1, 120 h, read-out: PA-1 Anti-proliferative activity IC50 (nM), PA-1 cells, 5 days, Cell-Titer Glo.
Setting [11] is: Homo sapiens, MDA-MB-231, 120 h, read-out: MDA-MB-231 Anti-proliferative activity IC50 (nM).
[12] abbreviates: Homo sapiens, A549, 120 h, read-out: A549 Anti-proliferative activity IC50 (nM), A549 cells, 5 days, Cell-Titer Glo.
[13] abbreviates: Homo sapiens, HCT-116, 72 h, read-out: HCT116 Anti-proliferative activity IC50 (nM), HCT116 cells, cultured 3 days with compound, Cell-Titer Glo.
[14] abbreviates: Homo sapiens, OVCAR-3, 120 h, read-out: OVCAR3 Anti-proliferative activity IC50 (nM).
[15] abbreviates: Homo sapiens, SK-OV-3, 120 h, SK-OV-3 cells, 5 days, Cell-Titer Glo, read-out: SK-OV-3 Anti-proliferative activity IC50.
The mark [16] stands for this setting: Homo sapiens, PA-1, 120 h, PA-1 cells, 5 days, Cell-Titer Glo, read-out: PA-1 Anti-proliferative activity IC50.
Where [17] appears, read: Homo sapiens, MDA-MB-231, 120 h, MDA-MB-231 cells, 5 days, Cell-Titer Glo, read-out: MDA-MB-231 Anti-proliferative activity IC50.
Setting [18] is: Homo sapiens, A549, 120 h, A549 cells, 5 days, Cell-Titer Glo, read-out: A549 Anti-proliferative activity IC50.
[19] abbreviates: Homo sapiens, SK-BR-3, 120 h, SKBR3 cells, cultured 5 days with compound, Cell-Titer Glo, read-out: SKBR3 Anti-proliferative activity IC50.
The mark [20] stands for this setting: Homo sapiens, OVCAR-3, 120 h, OVCAR3 cells, cultured 5 days with compound, Cell-Titer Glo, read-out: OVCAR3 Anti-proliferative activity IC50.

In the case of `CC[C@@]1(O)C(=O)OCc2c1cc1n(c2=O)Cc2c-1nc1cc3c(c(Cl)c1c2CNC(=O)CO)OCO3` [Compound 31, (S)-N-((15-chloro-7-ethyl-7-hydroxy-8,11-dioxo-7,8,11,13-tetrahydro-10H-[1,3]dioxolo[4,5-g]pyrano[3′,4′:6,7]indolizino[1,2-b]quinolin-14-yl)methyl)-2-hydroxyacetamide], the IC50 (usually the concentration that inhibits the measured activity by half) came out at 12.3 nM in experiment [1] (setting [9]); 1.7 nM in experiment [2] (setting [10]); 4 nM in experiment [3]; 13.5 nM in experiment [4] (setting [11]); 15.9 nM in experiment [5] (setting [12]); 1.2 nM in experiment [6] (setting [13]). Further, in experiment [7] (setting [14]), the IC50 was determined as 0.2 nM.

Consider `CC[C@@]1(O)C(=O)OCc2c1cc1n(c2=O)Cc2c-1nc1cc3c(c(F)c1c2CN)OCO3` [Compound 35, (S)-14-(aminomethyl)-7-ethyl-15-fluoro-7-hydroxy-10,13-dihydro-11H-[1,3]dioxolo[4,5-g]pyrano[3′,4′:6,7]indolizino[1,2-b]quinoline-8,11(7H)-dione], for which the IC50 in experiment [2] (setting [10]) worked out at 0.8 nM; in experiment [7] (setting [14]) it was 0.9 nM.

As to `CC[C@@]1(O)C(=O)OCc2c1cc1n(c2=O)Cc2c-1nc1cc3c(c(F)c1c2CNC(=O)C(O)C1CC1)OCO3` (stereo partly drawn) [Compound 37, 2-cyclopropyl-N-(((S)-7-ethyl-15-fluoro-7-hydroxy-8,11-dioxo-7,8,11,13-tetrahydro-10H-[1,3]dioxolo[4,5-g]pyrano[3′,4′:6,7]indolizino [1,2-b]quinolin-14-yl)methyl)-2-hydroxyacetamide], the IC50 is 3.5 nM in experiment [1] (setting [9]); 0.9 nM in experiment [2] (setting [10]); 23.9 nM in experiment [4] (setting [11]); 19.6 nM in experiment [5] (setting [12]); 8.1 nM in experiment [6] (setting [13]); 3.5 nM in experiment [8] (Homo sapiens, SK-BR-3, 120 h, read-out: SKBR3 Anti-proliferative activity IC50 (nM), SKBR3 cells, cultured 5 days with compound, Cell-Titer Glo). In addition, in experiment [7] (setting [14]), the IC50 turned out to be 1.2 nM.

Turning to `CC[C@@]1(O)C(=O)OCc2c1cc1n(c2=O)Cc2c-1nc1cc3c(c(F)c1c2CNC(=O)[C@@H](O)C1CC1)OCO3` [Compound 37-P2, 2-cyclopropyl-N-(((S)-7-ethyl-15-fluoro-7-hydroxy-8,11-dioxo-7,8,11,13-tetrahydro-10H-[1,3]dioxolo[4,5-g]pyrano[3′,4′:6,7]indolizino [1,2-b]quinolin-14-yl)methyl)-2-hydroxyacetamide], the IC50 in experiment [1] (setting [15]) is 3 nM; in experiment [2] (setting [16]) it was 1.1 nM; in experiment [4] (setting [17]), 25.9 nM; in experiment [5] (setting [18]) it was 16.1 nM; in experiment [8] (setting [19]), 3.6 nM; in experiment [7] (setting [20]) it was 1.8 nM.

`[2H]C1([2H])Oc2cc3nc4c(c(CNC(=O)[C@@H](O)C5CC5)c3cc2O1)Cn1c-4cc2c(c1=O)COC(=O)[C@]2(O)CC` [Compound 39-P1, 2-cyclopropyl-N-(((S)-7-ethyl-7-hydroxy-8,11-dioxo-7,8,11,13-tetrahydro-10H-[1,3]dioxolo[4,5-g]pyrano[3′,4′:6,7]indolizino[1,2-b]quinolin-14-yl-2,2-d2)methyl)-2-hydroxyacetamide]: the IC50 in experiment [1] (setting [15]) was 1.9 nM; in experiment [2] (setting [16]), 0.9 nM; in experiment [4] (setting [17]), 15.6 nM; in experiment [5] (setting [18]), 13.9 nM; in experiment [6] (Homo sapiens, HCT-116, 72 h, HCT116 cells, cultured 3 days with compound, Cell-Titer Glo, read-out: HCT116 Anti-proliferative activity IC50), 4.6 nM; in experiment [8] (setting [19]), 1.9 nM. Besides, the IC50 in experiment [7] (setting [20]) amounted to 0.6 nM.

`[2H]C1([2H])Oc2cc3nc4c(c(CNC(=O)[C@@H](O)C5CC5)c3cc2O1)Cn1c-4cc2c(c1=O)COC(=O)[C@]2(O)CC` [Compound 39-P2, 2-cyclopropyl-N-(((S)-7-ethyl-7-hydroxy-8,11-dioxo-7,8,11,13-tetrahydro-10H-[1,3]dioxolo[4,5-g]pyrano[3′,4′:6,7]indolizino[1,2-b]quinolin-14-yl-2,2-d2)methyl)-2-hydroxyacetamide]: the IC50 turned out to be 2.1 nM in experiment [1] (SK-OV-3 cells, 5 days, Cell-Titer Glo, read-out: SK-OV-3 Anti-proliferative activity IC50); 1.2 nM in experiment [2] (PA-1 cells, 5 days, Cell-Titer Glo, read-out: PA-1 Anti-proliferative activity IC50); 23.2 nM in experiment [4] (MDA-MB-231 cells, 5 days, Cell-Titer Glo, read-out: MDA-MB-231 Anti-proliferative activity IC50); 15.7 nM in experiment [5] (A549 cells, 5 days, Cell-Titer Glo, read-out: A549 Anti-proliferative activity IC50); 6.5 nM in experiment [6] (HCT116 cells, cultured 3 days with compound, Cell-Titer Glo, read-out: HCT116 Anti-proliferative activity IC50); 2.9 nM in experiment [8] (SKBR3 cells, cultured 5 days with compound, Cell-Titer Glo, read-out: SKBR3 Anti-proliferative activity IC50). Further, in experiment [7] (OVCAR3 cells, cultured 5 days with compound, Cell-Titer Glo, read-out: OVCAR3 Anti-proliferative activity IC50), the IC50 came to 1 nM.
